The target in the first experiment is T1, hROMK (hKir1.1) (Homo sapiens, UniProt P48048).
T1 construct: expressed in transfected cells
T1 sequence (P48048 1-391): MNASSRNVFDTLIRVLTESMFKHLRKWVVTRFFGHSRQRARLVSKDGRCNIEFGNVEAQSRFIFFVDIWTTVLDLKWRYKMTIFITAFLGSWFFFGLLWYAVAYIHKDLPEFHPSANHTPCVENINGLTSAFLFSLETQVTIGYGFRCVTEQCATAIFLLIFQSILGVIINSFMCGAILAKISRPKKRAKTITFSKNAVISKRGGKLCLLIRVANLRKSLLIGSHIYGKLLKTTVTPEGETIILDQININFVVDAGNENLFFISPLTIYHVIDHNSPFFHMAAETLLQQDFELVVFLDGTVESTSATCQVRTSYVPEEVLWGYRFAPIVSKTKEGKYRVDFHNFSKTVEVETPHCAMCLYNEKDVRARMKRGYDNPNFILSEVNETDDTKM
Kind of experiment: Thallium Flux Assay. Type of experiment: cell-based. The conditions noted are these: HEK293 cells stably expressing hROMK (hKir1.1), FLIPR-Tetra; read-out: Thallium Flux IC50. A digest of the protocol:
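HEK293 cells stably expressing hROMK, loaded with FluxOR dye 90 min at ambient temperature, then compound 30 min with 0.3 mM ouabain in probenecid buffer pH 7.4.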
For `Cc1cc2c(cc1[C@@H]1CN3CCN(C(=O)Cc4ccc(-n5cnnn5)nc4)C[C@H]3CO1)COC2=O` [Example 72, 6-methyl-5-[(3R,9aS)-8-{[6-(1H-tetrazol-1-yl)pyridin-3-yl]acetyl}octahydropyrazino[2,1-c][1,4]oxazin-3-yl]-2-benzofuran-1(3H)-one], the IC50 (usually the concentration at which inhibition is half-maximal) was 0.75 µM.

Consider `Cc1c([C@H]2CN3CCN(C(=O)Cc4ccc(-n5cnnn5)nc4)C[C@H]3CS2)ccc(F)c1C#N` [Example 185, 6-fluoro-2-methyl-3-[(3S,9aS)-8-{[6-(1H-tetrazol-1-yl)pyridin-3-yl]acetyl}octahydropyrazino[2,1-c][1,4]thiazin-3-yl]benzonitrile], for which the half-inhibitory concentration (IC50) was 0.18 µM.

Turning to `Cc1c([C@@H]2CN3CCN(C(=O)Cc4cnc(-n5cnnn5)c(F)c4)C[C@H]3CO2)ccc(F)c1C#N` [Example 148, 6-fluoro-3-[(3R,9aS)-8-{[5-fluoro-6-(1H-tetrazol-1-yl)pyridin-3-yl]acetyl}octahydropyrazino[2,1-c][1,4]oxazin-3-yl]-2-methylbenzonitrile], the IC50 was 0.08 µM.

`Cc1c([C@@H]2CN3CCN(C(=O)Cc4ccc(-n5cnnn5)cn4)C[C@H]3CN2)ccc(F)c1C#N` [Example 195, 6-fluoro-2-methyl-3-[(3R,9aR)-8-{[5-(1H-tetrazol-1-yl)pyridin-2-yl]acetyl}octahydro-2H-pyrazino[1,2-a]pyrazin-3-yl]benzonitrile]: the half-inhibitory concentration (IC50) was found to be 0.25 µM.

`Cc1c(C#N)cccc1[C@@H]1CN2CCN(C(=O)Cc3cnc(-n4cnnn4)nc3)C[C@@H]2CO1` [Example 116, 2-methyl-3-[(3R,9aR)-8-{[2-(1H-tetrazol-1-yl)pyrimidin-5-yl]acetyl}octahydropyrazino[2,1-c] [1,4]oxazin-3-yl]benzonitrile]: the IC50 came out at 0.33 µM.

`COc1cc([C@H]2CN3CCN(C(=O)Cc4cnc(-n5cnnn5)nc4)C[C@H]3CO2)ccc1C#N` [Example 143, 2-methoxy-4-[(3S,9aS)-8-{[2-(1H-tetrazol-1-yl)pyrimidin-5-yl]acetyl}octahydropyrazino[2,1-c][1,4]oxazin-3-yl]benzonitrile]: the IC50 was determined as 0.19 µM.

Take `N#Cc1c(F)ccc([C@@H]2CN3CCN(C(=O)Cc4ccc(-n5cnnn5)cn4)C[C@H]3CO2)c1Cl` [Example 53]: the half-maximal inhibitory concentration (IC50) was found to be 0.06 µM.

As to `Cc1c([C@H]2CN3CCN(C(=O)Cc4ccc(-n5cnnn5)nc4)C[C@H]3CO2)ccc(Cl)c1C#N` [Example 64, 6-chloro-2-methyl-3-[(3S,9aS)-8-{[6-(1H-tetrazol-1-yl)pyridin-3-yl]acetyl}octahydropyrazino[2,1-c][1,4]oxazin-3-yl]benzonitrile], the IC50 stood at 0.68 µM.

Regarding `Cc1c([C@H]2CN3CCN(C(=O)Cc4ccc(-n5cnnn5)nc4)C[C@H]3CO2)csc1C#N` [Example 69, 3-methyl-4-[(3S,9aS)-8-{[6-(1H-tetrazol-1-yl)pyridin-3-yl]acetyl}octahydropyrazino[2,1-c][1,4]oxazin-3-yl]thiophene-2-carbonitrile], the IC50 was 0.11 µM.

Staying with this experiment, now noted: Thallium Flux IC50.
`C[C@H]1Cc2cc([C@@H]3CN4CCN(C(=O)Cc5cnc(-n6cnnn6)nc5)C[C@H]4CO3)ccc2C(=O)O1` [Example 20, (3S)-3-methyl-6-[(3R,9aS)-8-{[2-(1H-tetrazol-1-yl)pyrimidin-5-yl]acetyl}octahydropyrazino[2,1-c][1,4]oxazin-3-yl]-3,4-dihydro-1H-isochromen-1-one]: the half-maximal inhibitory concentration (IC50) stood at 0.17 µM.

The compound `Cc1c(C#N)cccc1[C@H]1CN2CCN(C(=O)Cc3ccc(-n4cnnn4)nc3)C[C@H]2CO1` [Example 90, 2-methyl-3-[(3S,9aS)-8-{[6-(1H-tetrazol-1-yl)pyridin-3-yl]acetyl}octahydropyrazino[2,1-c][1,4]oxazin-3-yl]benzonitrile] yielded an IC50 of 0.13 µM.

Turning to `Cc1c([C@@H]2CN3CCN(C(=O)Cc4cnc(-n5cnnn5)nc4)C[C@H]3CO2)ccc(F)c1C#N` [Example 14], the midpoint of inhibition, the IC50, lay at 0.08 µM.

The values above are taken from patent EP2790511B1 (Merck Sharp & Dohme Corp., priority 2011, dated 2013).
